Source: patent US10689414B2 (Agios Pharmaceuticals, Inc., priority 2013, dated 2020)

System: U87MG cells
Assay: Cellular assay, inhibition of 2-HG production in U87MG cells
Format: cell-based
Settings: Homo sapiens, U-87 MG, 48 h
How it was run: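 HT1080 or U87MG cells (U87MG kept with 500 ug/mL G418) seeded at 5000 cells/well and treated with compound at 0.2% final DMSO. Incubated 48 h at 37 °C. 2-HG inhibition determined by LC-MS. Viability read by CellTiter-Glo luminescence at 72 h post-dose.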

IC50 [µM] | Compound
< 0.1 | N#Cc1ccnc(N2C(=O)OCC[C@H]2C(=O)N(c2cc(F)cc(F)c2)[C@H](C(=O)NC2CC(F)(F)C2)c2ccccc2Cl)n1 [Compound 154, (S)—N—((S)-1-(2-Chlorophenyl)-2-((3,3-difluorocyclobutyl)amino)-2-oxoethyl)-3-(4-cyanopyrimidin-2-yl)-N-(3,5-difluorophenyl)-2-oxo-1,3-oxazinane-4-carboxamide]
< 0.1 | CN(C)S(=O)(=O)c1cccc(N(C(=O)[C@@H]2CCC(=O)N2c2cc(C#N)ccn2)[C@H](C(=O)NC2CC(F)(F)C2)c2ccccc2Cl)c1 [Compound 156, (S)—N—((S)-1-(2-Chlorophenyl)-2-(3,3-difluorocyclobutylamino)-2-oxoethyl)-1-(4-cyanopyri-din-2-yl)-N-(3-(N,N-dimethylsulfamoyl)phenyl)-5-oxopyrrolidine-2-carboxamide]
< 0.1 | CNS(=O)(=O)c1cccc(N(C(=O)[C@@H]2CCC(=O)N2c2cc(C#N)ccn2)[C@H](C(=O)NC2CC(F)(F)C2)c2ccccc2Cl)c1 [Compound 157]
< 0.1 | N#Cc1ccnc(N2C(=O)CC[C@H]2C(=O)N(c2cc(F)cc(S(N)(=O)=O)c2)[C@H](C(=O)NC2CC(F)(F)C2)c2ccccc2Cl)c1 [Compound 158, (2S)—N-(1-(2-chlorophenyl)-2-(3,3-difluorocyclobutylamino)-2-oxo-ethyl)-1-(4-cyanopyridin-2-yl)-N-(3-fluoro-5-sulfamoylphenyl)-5-oxopyrrolidine-2-carboxamide]
< 0.1 | CS(=O)(=O)Nc1cccc(N(C(=O)[C@@H]2CCC(=O)N2c2cc(C#N)ccn2)[C@H](C(=O)NC2CC(F)(F)C2)c2ccccc2Cl)c1 [Compound 159, (S)—N—((S)-1-(2-Chlorophenyl)-2-(3,3-difluorocyclobutylamino)-2-oxoethyl)-1-(4-cyanopyridin-2-yl)-N-(3-(methylsulfonamido)phenyl)-5-oxopyrrolidine-2-carboxamide]
< 0.1 | N#Cc1ccnc(N2C(=O)CC[C@H]2C(=O)N(c2cccc(CCO)c2)[C@H](C(=O)NC2CC(F)(F)C2)c2ccccc2Cl)c1 [Compound 160, (S)—N—((S)-1-(2-Chlorophenyl)-2-((3,3-difluorocyclobutyl)amino)-2-oxoethyl)-1-(4-cyanopyri-din-2-yl)-N-(3-(2-hydroxyethyl)phenyl)-5-oxopyrrolidine-2-carboxamide]
< 0.1 | CN(C)c1cccc(N(C(=O)[C@@H]2CCC(=O)N2c2cc(C#N)ccn2)[C@H](C(=O)NC2CC(F)(F)C2)c2ccccc2Cl)c1 [Compound 161, (S)—N—((S)-1-(2-Chlorophenyl)-2-(3,3-difluorocyclobutylamino)-2-oxoethyl)-1-(4-cyanopyri-din-2-yl)-N-(3-(dimethylamino)phenyl)-5-oxopyrrolidine-2-carboxamide]
< 0.1 | N#Cc1cnc(N2C(=O)CC[C@H]2C(=O)N(c2cc(F)cc(F)c2)[C@H](C(=O)NC2CC(F)(F)C2)c2ccccc2Cl)o1 [Compound 162, (S)—N—((S)-1-(2-chlorophenyl)-2-((3,3-difluorocyclobutyl)amino)-2-oxoethyl)-1-(5-cyanooxa-zol-2-yl)-N-(3,5-difluorophenyl)-5-oxopyrrolidine-2-carboxamide]
< 0.1 | [2H]c1c([2H])c([2H])c([C@@H](C(=O)NC2CC(F)(F)C2)N(C(=O)[C@@H]2CCC(=O)N2c2cc(C#N)ccn2)c2cc(F)cc(F)c2)c(Cl)c1[2H] [Compound 163]
< 0.1 | COc1cccc(N(C(=O)[C@@H]2CCC(=O)N2c2nccc(C#N)n2)[C@H](C(=O)NC2CC(F)(F)C2)c2ccccc2Cl)c1 [Compound 164, (S)—N—((S)-1-(2-Chlorophenyl)-2-(3,3-difluorocyclobutyl-amino)-2-oxoethyl)-1-(4-cyanopyrimidin-2-yl)-N-(3-methoxyphenyl)-5-oxopyrrolidine-2-carboxamide]
< 0.1 | N#Cc1cccc(N(C(=O)[C@@H]2CCC(=O)N2c2cc(C#N)ccn2)[C@H](C(=O)NC2CCC(F)(F)CC2)c2ccccc2Cl)c1 [Compound 166, (S)—N—((S)-1-(2-Chlorophenyl)-2-((4,4-difluorocyclohexyl)amino)-2-oxoethyl)-N-(3-cyanophenyl)-1-(4-cyanopyridin-2-yl)-5-oxopyrrolidine-2-carboxamide]
< 0.1 | N#Cc1cccc(N(C(=O)[C@@H]2CCC(=O)N2c2nccc(C#N)n2)[C@H](C(=O)NC2CC(F)(F)C2)c2ccccc2Cl)c1 [Compound 167, (S)—N—((S)-1-(2-Chlorophenyl)-2-((3,3-difluorocyclobutyl)amino)-2-oxoethyl)-N-(3-cyanophenyl)-1-(4-cyanopyrimidin-2-yl)-5-oxopyrrolidine-2-carboxamide]
< 0.1 | CS(=O)(=O)c1cc(F)cc(N(C(=O)[C@@H]2CCC(=O)N2c2nccc(C#N)n2)[C@H](C(=O)NC2CCC(F)(F)CC2)c2ccccc2Cl)c1 [Compound 168, (S)—N—((S)-1-(2-Chlorophenyl)-2-((4,4-difluorocyclohexyl)amino)-2-oxoethyl)-1-(4-cyanopyrimidin-2-yl)-N-(3-fluoro-5-(methylsulfonyl)phenyl)-5-oxopyrrolidine-2-carboxamide]
< 0.1 | N#Cc1cccc(N(C(=O)[C@@H]2C[C@@H](O)C(=O)N2c2cc(C#N)ccn2)C(C(=O)NC2CC(F)(F)C2)c2ccccc2Cl)c1 (stereo partly drawn) [Compound 170, (2S,4R)—N-(1-(2-chlorophenyl)-2-((3,3-difluorocyclobutyl)amino)-2-oxoethyl)-N-(3-cyano-phenyl)-1-(4-cyanopyridin-2-yl)-4-hydroxy-5-oxopyrrolidine-2-carboxamide]
< 0.1 | N#Cc1ccnc(N2C(=O)[C@@H](O)C[C@H]2C(=O)N(c2cc(F)cc(F)c2)[C@H](C(=O)NC2CC(F)(F)C2)c2ccccc2Cl)c1 [Compound 171, (2S,4S)—N—((S)-1-(2-Chlorophenyl)-2-((3,3-difluorocyclobutyl)amino)-2-oxoethyl)-1-(4-cyano-pyridin-2-yl)-N-(3,5-difluorophenyl)-4-hydroxy-5-oxopyrrolidine-2-carboxamide]
< 0.1 | N#Cc1ccnc(N2C(=O)[C@@H](O)C[C@H]2C(=O)N(c2cccc(F)c2)[C@H](C(=O)NC2CCC(F)(F)CC2)c2ccccc2Cl)c1 [Compound 172, (2S,4S)—N—((S)-1-(2-Chlorophenyl)-2-((4,4-difluorocyclohexyl)amino)-2-oxoethyl)-1-(4-cyano-pyridin-2-yl)-N-(3-fluorophenyl)-4-hydroxy-5-oxopyrrolidine-2-carboxamide]
< 0.1 | N#Cc1ccnc(N2C(=O)CC[C@H]2C(=O)N(c2cccc(C3CC3)c2)[C@H](C(=O)NC2CC(F)(F)C2)c2ccccc2Cl)c1 [Compound 173, (S)—N—((S)-1-(2-Chlorophenyl)-2-((3,3-difluorocyclobutyl)amino)-2-oxoethyl)-1-(4-cyanopyri-din-2-yl)-N-(3-cyclopropylphenyl)-5-oxopyrrolidine-2-carboxamide]
< 0.1 | N#Cc1ccnc(N2C(=O)[C@@H](O)C[C@H]2C(=O)N(c2cc(F)cc(F)c2)[C@H](C(=O)NC2CCC(F)(F)CC2)c2ccccc2Cl)c1 [Compound 174, (2S,4S)—N—((S)-1-(2-Chlorophenyl)-2-((4,4-difluorocyclohexyl)amino)-2-oxoethyl)-1-(4-cyanopyridin-2-yl)-N-(3,5-difluorophenyl)-4-hydroxy-5-oxopyrrolidine-2-carboxamide]
< 0.1 | N#Cc1ccnc(N2C(=O)CC[C@H]2C(=O)N(c2ccc3[nH]ncc3c2)[C@H](C(=O)NC2CC(F)(F)C2)c2ccccc2Cl)c1 [Compound 175, (S)—N—((S)-1-(2-Chlorophenyl)-2-((3,3-difluorocyclobutyl)amino)-2-oxoethyl)-1-(4-cyanopyri-din-2-yl)-N-(1H-indazol-5-yl)-5-oxopyrrolidine-2-carboxamide]
< 0.1 | N#Cc1ccnc(N2C(=O)CC[C@H]2C(=O)N(c2cncc(F)c2)[C@H](C(=O)NC2CC(F)(F)C2)c2ccccc2Cl)c1 [Compound 176, (S)—N—((S)-1-(2-Chlorophenyl)-2-(3,3-difluorocyclobutylamino)-2-oxoethyl)-1-(4-cyanopyridin-2-yl)-N-(5-fluoropyridin-3-yl)-5-oxopyrrolidine-2-carboxamide]
< 0.1 | N#Cc1cc(F)cc(N(C(=O)[C@@H]2CCC(=O)N2c2cc(C#N)ccn2)[C@H](C(=O)NC2CC(F)(F)C2)c2ccccc2Cl)c1 [Compound 177, (S)—N—((S)-1-(2-Chlorophenyl)-2-(3,3-difluorocyclobutylamino)-2-oxoethyl)-N-(3-cyano-5-fluorophenyl)-1-(4-cyanopyridin-2-yl)-5-oxopyrrolidine-2-carboxamide]
< 0.1 | CC(C)(O)c1cccc(N(C(=O)[C@@H]2CCC(=O)N2c2cc(C#N)ccn2)[C@H](C(=O)NC2CC(F)(F)C2)c2ccccc2Cl)c1 [Compound 179, (S)—N—((S)-1-(2C)-2-((3,3-difluorocyclobutyl)amino)-2-oxoethyl)-1-(4-cyanopyridin-2-yl)-N-(3-(2-hydroxypropan-2-yl)phenyl)-5-oxopyrrolidine-2-carboxamide]
< 0.1 | N#Cc1ccnc(N2C(=O)CC[C@H]2C(=O)N(c2cccc(OC(F)(F)F)c2)C(C(=O)NC2CC(F)(F)C2)c2ccccc2Cl)n1 (stereo partly drawn) [Compound 180, (2S)—N-(1-(2-Chlorophenyl)-2-((3,3-difluorocyclobutyl)amino)-2-oxoethyl)-1-(4-cyanopyrimidin-2-yl)-5-oxo-N-(3-(trifluoromethoxy)phenyl)pyrrolidine-2-carboxamide]
< 0.1 | N#Cc1ccnc(N2C(=O)CC[C@H]2C(=O)N(c2cccc(OC(F)F)c2)[C@H](C(=O)NC2CC(F)(F)C2)c2ccccc2Cl)c1 [Compound 181, (S)—N—((S)-1-(2-Chlorophenyl)-2-((3,3-difluorocyclobutyl)amino)-2-oxoethyl)-1-(4-cyanopyridin-2-yl)-N-(3-(difluoromethoxy)phenyl)-5-oxopyrrolidine-2-carboxamide]
< 0.1 | N#Cc1ccnc(N2C(=O)CC[C@H]2C(=O)N(c2cccc(C3CC3)c2)[C@H](C(=O)NC2CC(F)(F)C2)c2ccccc2Cl)n1 [Compound 182, (S)—N—((S)-1-(2-Chlorophenyl)-2-((3,3-difluorocyclobutyl)amino)-2-oxoethyl)-1-(4-cyanopyri-midin-2-yl)-N-(3-cyclopropylphenyl)-5-oxopyrrolidine-2-carboxamide]
